Test systems include SNB-19; SK-MEL-28; OVCAR-3; UO-31; LOX IMVI; UACC-257; K562; KM-20L2; KM12; ACHN; OVCAR-4; Malme-3M; SN12C; UACC-62; SW-620; HL-60; T47D; Hs-578T; SR; MDA-MB-231.
Experiment in all cases: inhibition of tumour cell growth, NCI panel, 48 h

Each structure is given as a SMILES string.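 All cell lines were grown in 96-well plates and treated with compound for 48 hours. GI50 = concentration required for 50% inhibition of growth.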 The source made the active and inactive calls. No stated cut-off is given here; in the data, active = GI50 up to about 1.1 µM and inactive = higher. A value given as a limit tells only on which side of the number the result lay.

As for `Cn1cc(NC(=O)c2cc(NC(=O)CCCCCCCCCC(=O)Nc3cc(C(=O)Nc4cc(C(=O)NCCC(=N)N)n(C)c4)n(C)c3)cn2C)cc1C(=O)NCCC(=N)N`, the GI50 with SNB-19 is 30.8 µM (inactive); in the assay with SK-MEL-28 it was 11.9 µM (inactive); in the assay on OVCAR-3, 19.2 µM (inactive); in the assay on UO-31, 53.5 µM (inactive); with LOX IMVI it was 31 µM (inactive); in the assay on UACC-257 it was 15.8 µM (inactive). The GI50 with K562 was 14.3 µM (inactive); with KM-20L2 it was 31.2 µM (inactive); in the assay on KM12, 13.1 µM (inactive); in the assay with ACHN, 23.5 µM (inactive); in the assay with OVCAR-4, 34.8 µM (inactive); in the assay with Malme-3M, 0.971 µM (active). Moreover, the results for the GI50 in the assay with SN12C, in the assay with UACC-62 and with SW-620 were 32.2 µM (inactive), 31.2 µM (inactive) and 32 µM (inactive), respectively.
In the case of `CCCNCCCC(NC(C)=O)C(=O)NCc1ccccc1` (stereo not given), the GI50 in the assay with SNB-19, in the assay with SK-MEL-28, in the assay on OVCAR-3, with UO-31, with LOX IMVI and with UACC-257 was > 100 µM (inactive) throughout. The GI50 in the assay on K562, in the assay with KM-20L2, with KM12, with ACHN, with OVCAR-4 and in the assay with Malme-3M was > 100 µM (inactive) in each case. In addition, the GI50 in the assay on SN12C, in the assay with UACC-62 and with SW-620 was > 100 µM (inactive) each time.
Regarding `O=C(Nc1ccc(Cl)c(Cl)c1)C(=O)C(C(=O)c1ccccc1-c1ccccc1)C1OC(=O)c2ccccc21` (stereo not given), the GI50 was > 100 µM (inactive) in the assay on SK-MEL-28; 13.1 µM (inactive) in the assay on OVCAR-3; 15.6 µM (inactive) in the assay with UO-31; 13.5 µM (inactive) in the assay on LOX IMVI; 18.9 µM (inactive) in the assay on UACC-257; 21.5 µM (inactive) in the assay on K562. Also, the GI50 with KM-20L2 was 22.9 µM (inactive); with KM12, 14.7 µM (inactive); in the assay on HL-60, 10.9 µM (inactive); in the assay on ACHN, 31.3 µM (inactive); in the assay with Malme-3M it was 8.55 µM (inactive); with UACC-62 it was 15.8 µM (inactive). Besides, the GI50 with SW-620 was 19 µM (inactive).
As to `O=C1[C@@H]2C(c3ccc(Cl)cc3Cl)=NO[C@@H]2C(=O)N1c1ccc(Cc2ccc(N3C(=O)[C@H]4C(c5ccc(Cl)cc5Cl)=NO[C@H]4C3=O)cc2)cc1`, the GI50 in the assay on SK-MEL-28 is 67.1 µM (inactive); with OVCAR-3, 61 µM (inactive); in the assay on UO-31 it was > 100 µM (inactive); in the assay with LOX IMVI, 47.8 µM (inactive); in the assay on UACC-257 it was 41.6 µM (inactive); in the assay with K562 it was 29.3 µM (inactive). Moreover, the GI50 in the assay on KM-20L2 was > 100 µM (inactive); in the assay with KM12 it was > 100 µM (inactive); with HL-60, 11.4 µM (inactive); with OVCAR-4, > 100 µM (inactive); in the assay with Malme-3M, 84.3 µM (inactive); in the assay on SN12C, 54 µM (inactive). Besides, the figures for the GI50 with UACC-62 and in the assay on SW-620 were 71.6 µM (inactive) and 71.8 µM (inactive), respectively.
As for `Cc1cc2c(c3c1c1ccccc1n3C)C(=O)c1ccccc1C2=O`, the GI50 with SNB-19, in the assay on SK-MEL-28, in the assay on OVCAR-3, in the assay with UO-31, with LOX IMVI and in the assay with UACC-257 was > 100 µM (inactive) throughout. Also, the GI50 was 48 µM (inactive) in the assay with K562; > 100 µM (inactive) with KM-20L2; > 100 µM (inactive) with KM12; 39.3 µM (inactive) in the assay on HL-60; > 100 µM (inactive) in the assay on ACHN; > 100 µM (inactive) in the assay on OVCAR-4. Also, the GI50 in the assay on Malme-3M, with SN12C, in the assay on UACC-62 and in the assay with SW-620 was > 100 µM (inactive) in each case.
On to `CC1=NN(C(=O)c2ccc(Cl)cc2)C(=O)/C1=C/c1ccco1`, for which the GI50 in the assay on SNB-19, in the assay on SK-MEL-28, with OVCAR-3, in the assay on UO-31, in the assay with LOX IMVI and in the assay on UACC-257 was > 100 µM (inactive) throughout. For the same compound, the GI50 with K562, in the assay on KM-20L2, in the assay with KM12, with HL-60, in the assay on ACHN and in the assay on OVCAR-4 was > 100 µM (inactive) each time. In addition, the GI50 in the assay with Malme-3M, in the assay on SN12C, with UACC-62 and with SW-620 was > 100 µM (inactive) each time.
Take `Cc1ccccc1CN1CC=c2ccccc2=N1`: the GI50 in the assay on SNB-19 is > 100 µM (inactive); in the assay with SK-MEL-28 it was > 100 µM (inactive); in the assay with OVCAR-3, > 100 µM (inactive); in the assay with UO-31 it was 50.1 µM (inactive); in the assay on LOX IMVI, > 100 µM (inactive); in the assay with UACC-257, > 100 µM (inactive). In addition, the GI50 in the assay on K562, in the assay with KM-20L2, in the assay with KM12, in the assay on ACHN, in the assay with OVCAR-4 and in the assay with Malme-3M was > 100 µM (inactive) throughout. For the same compound, the GI50 with SN12C, in the assay with UACC-62 and with SW-620 was > 100 µM (inactive) throughout.
In the case of `CCCCCCCCCCCCCS(=O)(=O)O`, the GI50 in the assay with SNB-19, with SK-MEL-28, in the assay on OVCAR-3, in the assay on UO-31, with LOX IMVI and in the assay with UACC-257 was > 100 µM (inactive) throughout. Also, the GI50 with KM-20L2, in the assay with KM12, in the assay on HL-60, with ACHN, in the assay with OVCAR-4 and with Malme-3M was > 100 µM (inactive) throughout. Moreover, the GI50 in the assay with SN12C, with UACC-62 and in the assay on SW-620 was > 100 µM (inactive) throughout.
`CN1CCS(=O)(=O)NC(Cc2ccccc2)C(=O)N2CCCC2C1=O` (stereo not given): the GI50 in the assay on SNB-19, in the assay with SK-MEL-28, in the assay on OVCAR-3, in the assay on UO-31, with LOX IMVI and in the assay on UACC-257 was > 100 µM (inactive) each time. In addition, the GI50 in the assay with K562, in the assay on KM-20L2, in the assay on KM12, in the assay with HL-60, with ACHN and in the assay with OVCAR-4 was > 100 µM (inactive) in each case. The GI50 in the assay with Malme-3M, in the assay with SN12C, in the assay on UACC-62 and with SW-620 was > 100 µM (inactive) throughout.
In the case of `CC1C[C@H](OC(N)=O)C(C)CC1=O` (stereo not given in full), the GI50 with SNB-19, in the assay on OVCAR-3, with UO-31, in the assay with LOX IMVI, in the assay on UACC-257 and in the assay with K562 was > 100 µM (inactive) each time. Also, the GI50 with KM-20L2, in the assay on KM12, in the assay on HL-60, with ACHN, in the assay with OVCAR-4 and in the assay with Malme-3M was > 100 µM (inactive) in each case. Further, the GI50 in the assay on SN12C, in the assay with UACC-62 and with SW-620 was > 100 µM (inactive) throughout.
Regarding `COc1cc(CCc2ccc(OC(C)=O)cc2)cc(OC)c1OC`, the GI50 was > 100 µM (inactive) in the assay on SNB-19; > 100 µM (inactive) in the assay with SK-MEL-28; > 100 µM (inactive) in the assay with OVCAR-3; 73.3 µM (inactive) in the assay with UO-31; 92 µM (inactive) with LOX IMVI; > 100 µM (inactive) in the assay on UACC-257. Also, the GI50 with K562 was 63.8 µM (inactive); with KM-20L2, > 100 µM (inactive); in the assay with KM12, > 100 µM (inactive); in the assay on HL-60, > 100 µM (inactive); with ACHN it was 79.4 µM (inactive); in the assay with OVCAR-4, > 100 µM (inactive). The GI50 in the assay with Malme-3M, in the assay with SN12C, in the assay on UACC-62 and with SW-620 was > 100 µM (inactive) each time.
Turning to `C=C[C@H]1CN2CCc3c([nH]c4c([C@H]5CCCN5C)c(O)ccc34)[C@@H]2C[C@@H]1C[C@H]1c2[nH]c3ccccc3c2CCN1C` [STRYCHNOPENTAMINE], the GI50 is 1.95 µM (inactive) in the assay with SNB-19; 1.8 µM (inactive) with T47D; 1.78 µM (inactive) in the assay with Hs-578T; 1.76 µM (inactive) in the assay on SK-MEL-28; 1.58 µM (inactive) in the assay on OVCAR-3; 1.71 µM (inactive) in the assay on UO-31. In addition, the GI50 in the assay on LOX IMVI is 1.15 µM (inactive); with UACC-257 it was 1.83 µM (inactive); in the assay on K562 it was 0.422 µM (active); with KM12, 1.36 µM (inactive); in the assay with HL-60, 0.267 µM (active); with ACHN, 1.78 µM (inactive). Moreover, the GI50 in the assay on SR is 0.425 µM (active); in the assay with OVCAR-4 it was 1.74 µM (inactive); in the assay with Malme-3M, 1.76 µM (inactive); with SN12C it was 1.65 µM (inactive); in the assay on UACC-62, 1.77 µM (inactive); in the assay with SW-620, 1.24 µM (inactive). Moreover, the GI50 in the assay with MDA-MB-231 is 1.81 µM (inactive).
